Measurements taken from PubChem BioAssay (NCI).
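Compound exposure: 48 hours, 5 concentrations, 96-well plates. The concentration for 50% growth inhibition is given as GI50. The concentration for full growth arrest is given as TGI.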

Tests used:
Experiment in all cases: inhibition of tumour cell growth, NCI panel, 48 h
DLD-1 colon = system: DLD-1 colon
DMS 114 small cell lung = system: DMS 114 small cell lung
RXF-631 renal = system: RXF-631 renal
KM20L2 colon = system: KM20L2 colon
SNB-78 CNS = system: SNB-78 CNS
DMS 273 small cell lung = system: DMS 273 small cell lung
MDA-N = system: MDA-N
HOP-18 NSCLC = system: HOP-18 NSCLC
XF 498 CNS = system: XF 498 CNS

SMILES	TGI (DLD-1 colon) [µM]	TGI (DMS 114 small cell lung) [µM]	TGI (RXF-631 renal) [µM]	TGI (KM20L2 colon) [µM]	TGI (SNB-78 CNS) [µM]	TGI (DMS 273 small cell lung) [µM]	TGI (HOP-18 NSCLC) [µM]	TGI (XF 498 CNS) [µM]	other results
CC(C)(c1ccccc1)c1ccc(Oc2ccc(C#N)c(C#N)c2)cc1	> 100	> 100	> 100	> 100	–	–	–	–	GI50 (DLD-1 colon): > 100 µM; GI50 (RXF-631 renal): > 100 µM; GI50 (KM20L2 colon): > 100 µM
O=C(O)c1nc(-c2ccc(Cl)c(Cl)c2)nc2ccc(Cl)cc12	> 100	–	–	> 100	77.6	> 100	–	–	–
OCCn1cnc2c(SCc3ccccc3)ncnc21	–	–	–	–	–	–	–	–	TGI (MDA-N): > 100 µM
CC(=O)O[C@H]1CCC2[C@@H]3CCC4c5nonc5CC[C@]4(C)C3CC[C@@]21C (stereo partly specified)	> 10	> 100	–	> 10	> 100	> 10	> 10	–	GI50 (DMS 114 small cell lung): > 100 µM; GI50 (SNB-78 CNS): > 100 µM
CCOC(=O)/C(O)=C(/C(=O)OC)c1ccc(Cl)cc1	> 100	> 100	> 100	> 100	> 100	> 100	–	> 100	–
CN(C)C(=O)c1ccc([N+](=O)[O-])cc1	> 100	> 100	–	> 100	> 100	> 100	–	–	–
Oc1c(Cl)c(Cl)c(O)c2c1CCCC2	–	–	–	–	–	–	–	–	TGI (MDA-N): 31.1 µM
CNC(=O)OCc1c2ccncc2c(C)c2c1[nH]c1ccc(OC)cc12	–	1.32	> 100	0.799	0.681	> 100	0.738	> 100	–
C[CH2][Sn]([CH2]C)([O]C(=O)c1ccccc1F)[O][Sn]([CH2]C)([CH2]C)[O]C(=O)c1ccccc1F	54.7	30	–	> 77.9	46.7	> 100	51.6	29.9	GI50 (DLD-1 colon): 18.4 µM; GI50 (XF 498 CNS): 16.1 µM; GI50 (DMS 114 small cell lung): 15.8 µM; GI50 (SNB-78 CNS): 18.7 µM; GI50 (DMS 273 small cell lung): > 62.6 µM; GI50 (KM20L2 colon): > 51.2 µM; GI50 (HOP-18 NSCLC): 22.7 µM
O=c1c(O)c(-c2ccc(O)c(O)c2)oc2cc(O)cc(O)c12	> 100	> 100	> 100	> 100	> 100	> 100	> 100	> 100	–
O=S(=O)(/C=C/CS(=O)(=O)c1ccccc1)c1ccccc1	> 100	52	52.8	74.2	89.9	> 100	> 100	62.6	–
COc1cccc(-c2cc3c4c(nc5ccccc53)C(=O)c3cccnc3-c4n2)c1	–	–	–	–	–	–	–	–	GI50 (MDA-N): 1.74 µM; TGI (MDA-N): 4.01 µM
COC(=O)C(CC1=C(O)Nc2ccccc2N1)/C(=N/NC(N)=O)C(=O)Nc1ccccc1C (stereo unspecified)	> 100	26.5	–	> 100	> 100	36.9	> 100	–	–
CCN(CC)c1oc(N(CC)CC)c(C(=O)Nc2ccccn2)c(=O)c1C(C)=O	> 100	> 100	–	–	> 100	> 100	–	> 100	–
O=C(NC(=Nc1ccccc1)SCCSC(=Nc1ccccc1)NC(=O)c1cccs1)c1cccs1	> 100	> 100	–	> 100	–	> 100	–	> 100	–
COc1ccc(CC2(Cc3ccc(OC)cc3)CCOC2=O)cc1	> 100	> 100	–	–	–	–	–	26.1	–
CCOc1ccc(NC(=O)C(=O)C(C(=O)c2ccc3ccccc3c2)C2OC(=O)c3ccccc32)cc1 (stereo unspecified)	30.1	89.7	–	> 100	64.9	47	78.1	60.6	–
COc1cccc(NC(=O)CC(=O)N2N=C(n3ccc4ccccc43)CC2c2ccccc2)c1 (stereo unspecified)	> 100	> 100	–	> 100	> 100	> 100	> 100	–	–
O=C(N/C(=C\c1ccc(/C=C(\NC(=O)c2ccccc2)c2nc3ccccc3[nH]2)cc1)c1nc2ccccc2[nH]1)c1ccccc1	> 100	> 100	–	> 100	> 100	> 100	> 100	> 100	–
CC(=O)[CH-]C(=O)c1ccccc1.CC(=O)[CH-]C(=O)c1ccccc1.CC(=O)[CH-]C(=O)c1ccccc1.[In+3]	> 100	–	–	> 100	–	–	77.1	–	GI50 (DLD-1 colon): 24.4 µM; GI50 (KM20L2 colon): 39.4 µM; GI50 (HOP-18 NSCLC): 43.5 µM
C[C@]12CCC(=O)CC1CCCC2=O (stereo partly specified)	> 100	> 100	> 100	–	> 100	> 100	–	> 100	–
O=[N+]([O-])c1ccc(N2CCC(CCCC3CCN(c4ccc([N+](=O)[O-])cc4[N+](=O)[O-])CC3)CC2)c([N+](=O)[O-])c1	–	–	–	–	–	–	–	–	TGI (MDA-N): 30.1 µM
O=[N+]([O-])c1cc(Cl)cnc1Br	–	–	–	–	–	–	–	–	TGI (MDA-N): 12.4 µM
CCc1ccccc1NC(=O)/C(N=O)=C(/C)O	> 100	> 100	> 100	> 100	> 100	> 100	> 100	> 100	–
COc1ccc(C2=C(c3ccc(OC)c(OC)c3)C(=O)N3CCCC3C2)cc1 (stereo unspecified)	–	–	–	–	–	–	–	–	GI50 (MDA-N): 44.6 µM; TGI (MDA-N): > 100 µM
CC1(C)CC2CC(CC(C)(C)C2=O)C1=O	> 100	> 100	> 100	> 100	> 100	> 100	> 100	> 100	–
O=C1C(c2cnc3ccccc3n2)=C(O)c2ccccc21	> 100	> 100	> 100	> 100	> 100	> 100	–	–	TGI (MDA-N): > 100 µM
CCc1cccc(C)c1NC(=O)C1=C(C)NC(C)=C(C(=O)Nc2c(C)cccc2CC)C1c1ccc2c(c1)OCO2	47.5	38.7	54	62.8	> 100	–	–	31	–
COc1ccc2nc3cc(Cl)ccc3c(SCC(=O)Nc3ccccc3-c3ccccc3NC(=O)CSc3c4ccc(Cl)cc4nc4ccc(OC)cc34)c2c1	> 100	> 100	–	> 100	> 100	> 100	> 100	> 100	–
CCCN(CCC)C(=O)C(=O)c1c(N)[nH]n(-c2ccccc2)c1=O	> 100	> 100	> 100	> 100	> 100	> 100	> 100	> 100	–
